Residues, ends and D or L forms follow the SMILES beside them.
Legend:
[1] = test system: isolated mitochondrial, cultured cells and animal subjects; test: Mitochondrial reduction potential; details: in vitro and in vivo
Source text: It is anticipated that SPN10(s) (with or without aromatic-cationic peptides) and conjugates will enhance mitochondrial reduction potential in vitro in isolated mitochondrial and in vivo in cultured cells and animal subjects.

[2] = test system: rat model of radiocontrast dye-induced renal failure; test: Example 39: radiocontrast dye-induced renal failure; type: in vivo
Method: Animal Model: A rat model of radiocontrast dye-induced renal failure as described by Agmon, et al., J. Clin. Invest. 94:1069-1075 (1994) will be used. As in humans, radiocontrast dyes are generally non-toxic when administered to animals with normal renal function. However, radiocontrast dyes can induce ARI in animals with impaired renal function. In this model, impaired renal function will be induced by the administration of indomethacin (10 mg/kg) and L-NAME (10 mg/kg). Animals will be assigned to one of the following groups:
2. Indomethcin and L-NAME administered 15 minutes apart, followed by iothalamate (6 mL/kg) (n=7)
3. peptide conjugates (3 mg/kg, i.p.) administered 15 minutes prior to indomethacin/L-NAME/iothalamate administration as described in Group 2; second dose of peptide conjugates (3 mg/kg) administered immediately after drug exposure (n=9).
4. aromatic-cationic peptides (an equivalent molar dose of aromatic-cationic peptide based on the concentration of the aromatic-cationic peptide administered in the peptide conjugate treatment group) administered 15 minutes prior to indomethacin/L-NAME/iothalamate administration as described in Group 2; second dose of aromatic-cationic peptides (an equivalent molar dose of aromatic-cationic peptide based on the concentration of the aromatic-cationic peptide administered in the peptide conjugate treatment group) administered immediately after drug exposure (n=9).
5. […]
Renal Function: Renal function will be assessed by determining GFR at baseline and 24 hours following dye administration. GFR will be determined by creatinine clearance which will be estimated over a 24 hour interval before and after dye administration. Creatinine clearance will be analyzed by measuring plasma and urinary creatinine levels (Bioassay Systems; DICT-500) and urine volume.
Renal Histology: Kidneys will be fixed in 10% neutral-buffered formalin and embedded in paraffin wax for sectioning. Three-micron sections will be stained with hematoxylin-eosin (H&E) and periodic acid-Schiff (PAS) and analyzed by light microscopy by a board certified pathologist. […]

N=C(N)NCCC[C@H](NC(=O)[C@@H](N)Cc1c[nH]c2ccccc12)C(=O)N[C@@H](Cc1c[nH]c2ccccc12)C(=O)N[C@@H](CCCCN)C(N)=O [SPN10, H-L-Trp-L-Arg-L-Trp-L-Lys-NH2] (H-WRWK-NH2)
mitochondrial reduction potential [1]: enhance | number of apoptotic cells in contrast dye-exposed kidneys ([2]; TUNEL): reduce the number of apoptotic cells | loss of renal brush border and vacuolization (PAS) ([2]; contrast dye-exposed kidneys): attenuated | decline in renal function (GFR) after contrast dye ([2]; indomethacin, L-NAME, iothalamate, treatment before and after dye): reduce the decline in renal function
